Laboratory results published in patent US11479539B2, “Small molecule modulators of the BTB domain of Keap1” (MedImmune Limited, priority 2017, dated 2022).

target: Keap1 (Homo sapiens (Human), UniProt Q14145); test: HEK293 ARE luciferase assay; type: cell-based; details: HEK-293 ARE firefly luciferase transiently transfected cells; 18 h incubation; mean of 1 to 20 individual measurements
Text: The purpose of this assay is to identify small molecule inhibitors of Keap1, preventing Keap1 binding to Nrf2, and thus activating the Nrf2 signalling pathway in HEK-293 ARE firefly luciferase transiently transfected cells. HEK-293 cells express wild-type Keap1 protein and therefore have low constitutive levels of Nrf2 protein and Nrf2-dependent transcription. […] When Keap1 is inhibited, Nrf2 signalling is activated, and there is an increase in luciferase expression and light emission.
Cryopreserved HEK ARE luciferase cells were rapidly thawed in a 37° C. water bath and resuspended in assay culture medium (DMEM, 10% FCS, 2 mM L-glutamine). The cell suspension was pelleted by centrifugation ([…]; 300 g) using a Heraeus benchtop centrifuge. Supernatant was removed and the pellet was gently resuspended in 5 mL culture medium per vial. Cell viability and cell number was measured using an Invitrogen Countess automated cell counter (typical viability 80%), and cells were diluted to a density of 5.0×10^5 cells/mL.
Cells were then plated out into white 384-well plates (Greiner 781080) using a Multidrop Combi, 20 μL/well, to give 10,000 cells/well. As appropriate, test compounds had been added to wells prior to dispensing cells using an Echo 555 acoustic dispenser (Labcyte). Plates were left at room temperature for ˜10 min to promote even cell settling across the plate before incubation for 18 h at 37° C., 95% humidity and 5% CO2.
After 18 h incubation, plates were removed from the incubator and allowed to cool to room temperature for 30 min, before 10 μL per well SteadyGlo reagent detection reagent was added (as per manufacturer's instructions, 10 min before required 10 mL room temperature buffer was added to one vial of lyophilised substrate and inverted several times to fully dissolve). Plates were then incubated in the dark for 30 min before reading on an Envision plate reader.
Compounds were acoustically dispensed using a Labcyte Echo, using a 10 pt dose curve with a top concentration of 100 μM. Assay wells were backfilled with DMSO to a total of 60 nL to maintain 0.3% (v/v) DMSO through the assay.
The Stimulator signal was defined using 30 μM tert-butyl hydroquinone (tBHQ) and the Neutral signal by DMSO vehicle control. All calculations were performed using GeneData.
In IBIS Column Calculations, Assay Type was set to ‘Stimulator’, and the Activity Threshold was set to 50.
The mean values were calculated from anywhere from 1 to 20 individual measurements.

Chain of Keap1 (Q14145 whole entry): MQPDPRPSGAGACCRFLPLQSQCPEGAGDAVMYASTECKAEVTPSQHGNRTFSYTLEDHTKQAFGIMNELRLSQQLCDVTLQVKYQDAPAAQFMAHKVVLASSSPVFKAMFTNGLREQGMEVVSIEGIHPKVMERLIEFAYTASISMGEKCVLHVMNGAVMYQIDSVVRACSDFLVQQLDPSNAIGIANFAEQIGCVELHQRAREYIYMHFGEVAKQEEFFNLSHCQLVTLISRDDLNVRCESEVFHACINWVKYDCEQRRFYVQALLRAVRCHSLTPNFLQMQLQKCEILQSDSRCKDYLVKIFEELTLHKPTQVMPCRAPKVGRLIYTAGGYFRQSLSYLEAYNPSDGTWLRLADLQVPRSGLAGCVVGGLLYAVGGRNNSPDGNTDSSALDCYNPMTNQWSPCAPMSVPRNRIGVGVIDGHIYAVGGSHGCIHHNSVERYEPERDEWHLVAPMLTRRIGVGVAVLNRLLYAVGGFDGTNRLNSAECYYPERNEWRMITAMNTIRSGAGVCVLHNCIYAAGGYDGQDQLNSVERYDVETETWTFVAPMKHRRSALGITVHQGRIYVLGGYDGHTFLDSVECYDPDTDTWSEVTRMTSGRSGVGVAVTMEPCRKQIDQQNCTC

Compared with COC1(c2ncc(Cl)cc2F)C=C(C#N)C(=O)C2(CC2)C1 (single isomer, unassigned) [Compound 61, 7-(5-chloro-3-fluoropyridin-2-yl)-7-methoxy-4-oxospiro[2.5]oct-5-ene-5-carbonitrile], COC1(c2ncc(F)cc2C(F)F)C=C(C#N)C(=O)C2(CC2)C1 (single isomer, unassigned) [Compound 63, 7-[3-(difluoromethyl)-5-fluoropyridin-2-yl]-7-methoxy-4-oxospiro[2.5]oct-5-ene-5-carbonitrile] is 4.4-fold lower in EC50: 79 nM for the first, 18 nM for the second.

First: COC1(c2ncc(F)cc2OC(F)F)C=C(C#N)C(=O)C2(CC2)C1 (single isomer, unassigned) [Compound 62, 7-[3-(difluorometh-oxy)-5-fluoropyridin-2-yl]-7-methoxy-4-oxospiro[2.5]oct-5-ene-5-carbonitrile]
Second: COC1(c2ncc(F)cc2C)C=C(C#N)C(=O)C2(CCCC2)C1 (single isomer, unassigned) [Compound 68, 9-(5-fluoro-3-methylpyridin-2-yl)-9-methoxy-6-oxospiro[4.5]dec-7-ene-7-carbonitrile]
The EC50 of the first is 4.7-fold lower: 15 nM for the first, 70 nM for the second. The first is the more potent here.

Going from COC1(c2ncccc2C(F)(F)F)C=C(C#N)C(=O)C2(CCCC2)C1 (single isomer, unassigned) [Compound 66, 9-methoxy-6-oxo-9-[3-(trifluoromethyl)pyridin-2-yl]spiro[4.5]dec-7-ene-7-carbonitrile] to COC1(c2ccc(F)cn2)C=C(C#N)C(=O)C2(CCCC2)C1 (single isomer, unassigned) [Compound 67, 9-(5-fluoropyridin-2-yl)-9-methoxy-6-oxospiro[4.5]dec-7-ene-7-carbonitrile], the EC50 rises from 126 nM to 239 nM (1.9-fold). The first is the more potent here.

Going from COC1(c2ncc(F)cc2-c2cnn(C)c2)C=C(C#N)C(=O)C(C)(C)C1 (single isomer, unassigned) [Compound 69, 3-[5-fluoro-3-(1-methyl-1H-pyrazol-4-yl)pyridin-2-yl]-3-methoxy-5,5-dimethyl-6-oxocyclohex-1-ene-1-carbonitrile] to COC1(c2ncc(F)cc2-c2cnn(C3CC3)c2)C=C(C#N)C(=O)C(C)(C)C1 (single isomer, unassigned) [Compound 72, 3-[3-(1-cyclopropyl-1H-pyrazol-4-yl)-5-fluoropyridin-2-yl]-3-methoxy-5,5-dimethyl-6-oxocyclohex-1-ene-1-carbonitrile], the EC50 rises from 2 nM to 6 nM (3-fold).

Compared with COC1(c2ncc(F)cc2-c2ccc(F)cc2)C=C(C#N)C(=O)C(C)(C)C1 (single isomer, unassigned) [Compound 70, 3-[5-fluoro-3-(4-fluorophenyl)pyridin-2-yl]-3-methoxy-5,5-dimethyl-6-oxocyclohex-1-ene-1-carbonitrile], COC1(c2ncc(F)cc2-c2ccnc(C)c2)C=C(C#N)C(=O)C(C)(C)C1 (single isomer, unassigned) [Compound 76, 3-[5-fluoro-3-(2-methyl-4-pyridyl)-2-pyridyl]-3-methoxy-5,5-dimethyl-6-oxo-cyclohexene-1-carbonitrile] is 5-fold lower in EC50: 15 nM for the first, 3 nM for the second.

COC1(c2ncc(F)cc2-c2cnn(C)c2C)C=C(C#N)C(=O)C(C)(C)C1 (single isomer, unassigned) [Compound 71, 3-[3-(1,5-dimethyl-1H-pyrazol-4-yl)-5-fluoropyridin-2-yl]-3-methoxy-5,5-dimethyl-6-oxocyclohex-1-ene-1-carbonitrile] and COC1(c2ncc(F)cc2-c2cnc(C)s2)C=C(C#N)C(=O)C(C)(C)C1 (single isomer, unassigned) [Compound 73, 3-[5-fluoro-3-(2-methyl-1,3-thiazol-5-yl)pyridin-2-yl]-3-methoxy-5,5-dimethyl-6-oxocyclohex-1-ene-1-carbonitrile] are within 1.5-fold of each other in EC50: 9 nM for the first, 7 nM for the second.

With COC1(c2ncc(F)cc2-c2cccn(C)c2=O)C=C(C#N)C(=O)C(C)(C)C1 (single isomer, unassigned) [Compound 75, 3-[5-fluoro-3-(1-methyl-2-oxo-3-pyridyl)-2-pyridyl]-3-methoxy-5,5-dimethyl-6-oxo-cyclohexene-1-carbonitrile] the EC50 was 36 nM.
